Source: ChEMBL document CHEMBL1134903, “Synthesis and SAR of azalide 3,6-ketal aromatic derivatives as potent Gram-positive and Gram-negative antibacterial agents” (Bioorg Med Chem Lett, 2002)
Values after ≈ are worked out from the molar mass of the structure shown.

What was measured:
Assay type in all cases: functional
Escherichia coli = test: Minimum inhibitory concentration against Escherichia coli
Pasteurella multocida = test: Minimum inhibitory concentration against Pasteurella multocida
Staphylococcus aureus [1] = test: Colony forming units of Staphylococcus aureus intramammary infection (IMI) model was determined at a dose of 15 mg/kg
Staphylococcus aureus [2] = test: Effective dose required to inhibit Staphylococcus aureus intraperitoneal (IP) infection model
Staphylococcus aureus [3] = test: Minimum inhibitory concentration against Staphylococcus aureus

Structure (SMILES)	MIC (Escherichia coli) [µg/mL]	MIC (Pasteurella multocida) [µg/mL]	Log CFU (Staphylococcus aureus [1])	ED50 (Staphylococcus aureus [2]) [mg/kg]	MIC (Staphylococcus aureus [3]) [µg/mL]
CC[C@H]1OC(=O)[C@H](C)[C@H]2OC3(CCN(C(=O)c4ccnc5ccccc45)CC3)O[C@](C)(C[C@@H](C)CN(C)[C@H](C)[C@@H](O)[C@]1(C)O)[C@H](O[C@@H]1O[C@H](C)C[C@H](N(C)C)[C@H]1O)[C@H]2C	6.25 (≈ 7.56 µM)	0.1 (≈ 0.121 µM)	2.5	20	0.39 (≈ 0.472 µM)
CC[C@H]1OC(=O)[C@H](C)[C@H]2OC3(CCN(C(=O)c4cccnc4Cl)CC3)O[C@](C)(C[C@@H](C)CN[C@H](C)[C@@H](O)[C@]1(C)O)[C@H](O[C@@H]1O[C@H](C)C[C@H](N(C)C)[C@H]1O)[C@H]2C	3.13 (≈ 3.93 µM)	0.1 (≈ 0.125 µM)	4.4	9.4	1.56 (≈ 1.96 µM)
CC[C@H]1OC(=O)[C@H](C)[C@H]2OC3(CCN(C(=O)c4ccc[nH]4)CC3)O[C@](C)(C[C@@H](C)CN[C@H](C)[C@@H](O)[C@]1(C)O)[C@H](O[C@@H]1O[C@H](C)C[C@H](N(C)C)[C@H]1O)[C@H]2C	0.78 (≈ 1.04 µM)	0.05 (≈ 0.0666 µM)	4.7	19	0.78 (≈ 1.04 µM)
CC[C@H]1OC(=O)[C@H](C)[C@H]2OC3(CCN(Cc4ccccn4)CC3)O[C@](C)(C[C@@H](C)CN(C)[C@H](C)[C@@H](O)[C@]1(C)O)[C@H](O[C@@H]1O[C@H](C)C[C@H](N(C)C)[C@H]1O)[C@H]2C	0.2 (≈ 0.262 µM)	0.03 (≈ 0.0393 µM)	1.9	17	0.78 (≈ 1.02 µM)
CC[C@H]1OC(=O)[C@H](C)[C@@H](O[C@H]2C[C@@](C)(OC)[C@@H](O)[C@H](C)O2)[C@H](C)[C@@H](O[C@@H]2O[C@H](C)C[C@H](N(C)C)[C@H]2O)[C@](C)(O)C[C@@H](C)CN(C)[C@H](C)[C@@H](O)[C@]1(C)O [AZITHROMYCIN]	1.56 (≈ 2.08 µM)	0.1 (≈ 0.134 µM)	2.8	4.1	0.2 (≈ 0.267 µM)
CC[C@H]1OC(=O)[C@H](C)[C@H]2OC3(CCN(Cc4ccccn4)CC3)O[C@](C)(C[C@@H](C)CN[C@H](C)[C@@H](O)[C@]1(C)O)[C@H](O[C@@H]1O[C@H](C)C[C@H](N(C)C)[C@H]1O)[C@H]2C	0.2 (≈ 0.267 µM)	0.03 (≈ 0.0401 µM)	1.1	< 5	0.6 (≈ 0.801 µM)
CC[C@H]1OC(=O)[C@H](C)[C@H]2OC3(CCN(C(=O)c4cccc(O)n4)CC3)O[C@](C)(C[C@@H](C)CN[C@H](C)[C@@H](O)[C@]1(C)O)[C@H](O[C@@H]1O[C@H](C)C[C@H](N(C)C)[C@H]1O)[C@H]2C	6.25 (≈ 8.02 µM)	0.3 (≈ 0.385 µM)	9.7	19	3.13 (≈ 4.02 µM)
CC[C@H]1OC(=O)[C@H](C)[C@H]2OC3(CCN(C(=O)c4ccoc4)CC3)O[C@](C)(C[C@@H](C)CN[C@H](C)[C@@H](O)[C@]1(C)O)[C@H](O[C@@H]1O[C@H](C)C[C@H](N(C)C)[C@H]1O)[C@H]2C	0.78 (≈ 1.04 µM)	0.05 (≈ 0.0665 µM)	2.6	11	0.78 (≈ 1.04 µM)
CC[C@H]1OC(=O)[C@H](C)[C@H]2OC3(CCN(CCc4ccc5ccccc5n4)CC3)O[C@](C)(C[C@@H](C)CN[C@H](C)[C@@H](O)[C@]1(C)O)[C@H](O[C@@H]1O[C@H](C)C[C@H](N(C)C)[C@H]1O)[C@H]2C	0.78 (≈ 0.959 µM)	0.03 (≈ 0.0369 µM)	5.2	22	0.2 (≈ 0.246 µM)
CC[C@H]1OC(=O)[C@H](C)[C@H]2OC3(CCN(C(=O)c4cccn4C)CC3)O[C@](C)(C[C@@H](C)CN[C@H](C)[C@@H](O)[C@]1(C)O)[C@H](O[C@@H]1O[C@H](C)C[C@H](N(C)C)[C@H]1O)[C@H]2C	1.56 (≈ 2.04 µM)	0.1 (≈ 0.131 µM)	2.4	19	0.78 (≈ 1.02 µM)
CC[C@H]1OC(=O)[C@H](C)[C@H]2OC3(CCN(C(=O)c4ccco4)CC3)O[C@](C)(C[C@@H](C)CN[C@H](C)[C@@H](O)[C@]1(C)O)[C@H](O[C@@H]1O[C@H](C)C[C@H](N(C)C)[C@H]1O)[C@H]2C	1.56 (≈ 2.07 µM)	0.05 (≈ 0.0665 µM)	0.4	12	0.78 (≈ 1.04 µM)
CC[C@H]1OC(=O)[C@H](C)[C@H]2OC3(CCN(C(=O)c4ccnc5ccccc45)CC3)O[C@](C)(C[C@@H](C)CN[C@H](C)[C@@H](O)[C@]1(C)O)[C@H](O[C@@H]1O[C@H](C)C[C@H](N(C)C)[C@H]1O)[C@H]2C	6.25 (≈ 7.69 µM)	0.1 (≈ 0.123 µM)	1.9	7.6	0.39 (≈ 0.48 µM)
CC[C@H]1OC(=O)[C@H](C)[C@H]2OC3(CCN(C(=O)c4ccccc4)CC3)O[C@](C)(C[C@@H](C)CN[C@H](C)[C@@H](O)[C@]1(C)O)[C@H](O[C@@H]1O[C@H](C)C[C@H](N(C)C)[C@H]1O)[C@H]2C	1.56 (≈ 2.05 µM)	0.1 (≈ 0.131 µM)	2.9	20	0.78 (≈ 1.02 µM)
CC[C@H]1OC(=O)[C@H](C)[C@H]2OC3(CCN(Cc4cccnc4)CC3)O[C@](C)(C[C@@H](C)CN[C@H](C)[C@@H](O)[C@]1(C)O)[C@H](O[C@@H]1O[C@H](C)C[C@H](N(C)C)[C@H]1O)[C@H]2C	0.78 (≈ 1.04 µM)	0.03 (≈ 0.0401 µM)	1.3	< 5	0.39 (≈ 0.521 µM)
CC[C@H]1OC(=O)[C@H](C)[C@H]2OC3(CCN(C(=O)c4cnc5ccccc5c4)CC3)O[C@](C)(C[C@@H](C)CN[C@H](C)[C@@H](O)[C@]1(C)O)[C@H](O[C@@H]1O[C@H](C)C[C@H](N(C)C)[C@H]1O)[C@H]2C	3.13 (≈ 3.85 µM)	0.1 (≈ 0.123 µM)	3.3	13	0.39 (≈ 0.48 µM)
CC[C@H]1OC(=O)[C@H](C)[C@H]2OC3(CCN(CCc4ccc(Cl)cc4)CC3)O[C@](C)(C[C@@H](C)CN(C)[C@H](C)[C@@H](O)[C@]1(C)O)[C@H](O[C@@H]1O[C@H](C)C[C@H](N(C)C)[C@H]1O)[C@H]2C	0.2 (≈ 0.247 µM)	0.03 (≈ 0.037 µM)	9.7	> 20	0.39 (≈ 0.481 µM)
CC[C@H]1OC(=O)[C@H](C)[C@H]2OC3(CCN(C(=O)c4ccc5ccccc5n4)CC3)O[C@](C)(C[C@@H](C)CN(C)[C@H](C)[C@@H](O)[C@]1(C)O)[C@H](O[C@@H]1O[C@H](C)C[C@H](N(C)C)[C@H]1O)[C@H]2C	6.25 (≈ 7.56 µM)	0.1 (≈ 0.121 µM)	9.7	> 20	0.39 (≈ 0.472 µM)
CC[C@H]1OC(=O)[C@H](C)[C@H]2OC3(CCN(C(=O)c4ccccn4)CC3)O[C@](C)(C[C@@H](C)CN(C)[C@H](C)[C@@H](O)[C@]1(C)O)[C@H](O[C@@H]1O[C@H](C)C[C@H](N(C)C)[C@H]1O)[C@H]2C	1.56 (≈ 2.01 µM)	0.1 (≈ 0.129 µM)	2.9	12	1.56 (≈ 2.01 µM)
CC[C@H]1OC(=O)[C@H](C)[C@H]2OC3(CCN(CCc4ccc(OC)cc4)CC3)O[C@](C)(C[C@@H](C)CN(C)[C@H](C)[C@@H](O)[C@]1(C)O)[C@H](O[C@@H]1O[C@H](C)C[C@H](N(C)C)[C@H]1O)[C@H]2C	0.39 (≈ 0.484 µM)	0.03 (≈ 0.0372 µM)	9.7	> 20	0.39 (≈ 0.484 µM)
CC[C@H]1OC(=O)[C@H](C)[C@H]2OC3(CCN(C(=O)c4cccnc4)CC3)O[C@](C)(C[C@@H](C)CN(C)[C@H](C)[C@@H](O)[C@]1(C)O)[C@H](O[C@@H]1O[C@H](C)C[C@H](N(C)C)[C@H]1O)[C@H]2C	3.13 (≈ 4.03 µM)	0.1 (≈ 0.129 µM)	2.6	10	1.56 (≈ 2.01 µM)
CC[C@H]1OC(=O)[C@H](C)[C@H]2OC3(CCN(C(=O)c4ccccn4)CC3)O[C@](C)(C[C@@H](C)CN[C@H](C)[C@@H](O)[C@]1(C)O)[C@H](O[C@@H]1O[C@H](C)C[C@H](N(C)C)[C@H]1O)[C@H]2C	1.56 (≈ 2.04 µM)	0.1 (≈ 0.131 µM)	3.5	7.6	0.78 (≈ 1.02 µM)
CC[C@H]1OC(=O)[C@H](C)[C@H]2OC3(CCN(C(=O)c4cccc(OC)c4)CC3)O[C@](C)(C[C@@H](C)CN[C@H](C)[C@@H](O)[C@]1(C)O)[C@H](O[C@@H]1O[C@H](C)C[C@H](N(C)C)[C@H]1O)[C@H]2C	3.13 (≈ 3.95 µM)	0.1 (≈ 0.126 µM)	5.6	20	0.78 (≈ 0.985 µM)
CC[C@H]1OC(=O)[C@H](C)[C@H]2OC3(CCN(C(=O)c4cnccn4)CC3)O[C@](C)(C[C@@H](C)CN[C@H](C)[C@@H](O)[C@]1(C)O)[C@H](O[C@@H]1O[C@H](C)C[C@H](N(C)C)[C@H]1O)[C@H]2C	1.56 (≈ 2.04 µM)	0.1 (≈ 0.131 µM)	1.3	6.1	1.56 (≈ 2.04 µM)
CC[C@H]1OC(=O)[C@H](C)[C@H]2OC3(CCN(C(=O)c4cccnc4)CC3)O[C@](C)(C[C@@H](C)CN[C@H](C)[C@@H](O)[C@]1(C)O)[C@H](O[C@@H]1O[C@H](C)C[C@H](N(C)C)[C@H]1O)[C@H]2C	3.13 (≈ 4.1 µM)	0.1 (≈ 0.131 µM)	3.2	6.4	1.56 (≈ 2.04 µM)
